Values quoted from earlier work, collected in patent US20180055752A1, “TOPICAL COMPOSITIONS TO REDUCE HAIR GROWTH” (The Regents of the University of California, priority 2016, published 2018).
Entries after “also recorded” stand apart in the source; their conditions may differ. Where two headings read alike, the source gives them in different places.

How the values were obtained:
[1] = test system: cultured human hair follicles
deer hair follicle = settings: tolbutamide 1 mM
[2] = test system: Kir6.2/SUR1 and SUR2B K-ATP channels
[3] = eight children treated for hypoglycemia of infancy

SMILES	effect on anagen [1]	effect on hair follicle growth stimulated by minoxidil / diazoxide (deer hair follicle; 10 μM minoxidil)	K-ATP channel subtype selectivity and potency [2]	K-ATP channel subtype selectivity and potency ([2]; listed as Tolbutamide)	inhibition of hair follicle growth (deer hair follicle; glibenclamide at a single concentration)	hypertrichosis as side effect [3]
CCCCNC(=O)NS(=O)(=O)c1ccc(C)cc1 [tolbutamide]	shorten anagen	abolished the effect of 10 μM minoxidil, and diazoxide	selectively inhibits Kir6.2/SUR1 K-ATP channels with low potency	selectively inhibits Kir6.2/SUR1 KATP channels with low potency		
COc1ccc(Cl)cc1C(=O)NCCc1ccc(S(=O)(=O)NC(=O)NC2CCCCC2)cc1 [glibenclamide]			nonselectively blocks both SUR1 and SUR2B forms with high affinity; also recorded: non-selectively blocks both SUR1 and SUR2B forms with high affinity		did not inhibit deer hair follicle growth	
CC1=NS(=O)(=O)c2cc(Cl)ccc2N1 [diazoxide]						all developed hypertrichosis
